According to PubChem BioAssay (NCI):
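How tested: cells in 96-well plates exposed to compound for 48 hours at five concentrations. GI50 marks 50% less growth. Definition used: TGI = concentration required for complete inhibition of growth.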

Tests used:
Assay in all cases: NCI-60 cell line screen, 48 h
[1] = tested on: 786-0 renal
[2] = tested on: A498 renal
[3] = tested on: A549 NSCLC
[4] = tested on: ACHN renal
[5] = tested on: BT-549 breast
[6] = tested on: CAKI-1 renal
[7] = tested on: CCRF-CEM leukemia
[8] = tested on: COLO 205 colon
[9] = tested on: DU-145 prostate
[10] = tested on: HCC-2998 colon
[11] = tested on: HCT-116 colon
[12] = tested on: HCT-15 colon
[13] = tested on: HL-60(TB) leukemia
[14] = tested on: HOP-62 NSCLC
[15] = tested on: HOP-92 NSCLC
[16] = tested on: HS 578T breast
[17] = tested on: HT29 colon
[18] = tested on: IGROV1 ovarian
[19] = tested on: K-562 leukemia
[20] = tested on: KM12 colon
[21] = tested on: LOX IMVI melanoma
[22] = tested on: M14 melanoma
[23] = tested on: MALME-3M melanoma
[24] = tested on: MCF7 breast
[25] = tested on: MDA-MB-231 breast
[26] = tested on: MDA-MB-435
[27] = tested on: MOLT-4 leukemia
[28] = tested on: NCI-H226 lung
[29] = tested on: NCI-H23 lung
[30] = tested on: NCI-H460 lung
[31] = tested on: NCI-H522 lung
[32] = tested on: NCI/ADR-RES ovarian
[33] = tested on: OVCAR-3 ovarian
[34] = tested on: OVCAR-4 ovarian
[35] = tested on: OVCAR-5 ovarian
[36] = tested on: OVCAR-8 ovarian
[37] = tested on: PC-3 prostate
[38] = tested on: RPMI-8226 leukemia
[39] = tested on: RXF 393 renal
[40] = tested on: SF-268 CNS
[41] = tested on: SF-539 CNS
[42] = tested on: SK-MEL-2 melanoma
[43] = tested on: SK-MEL-28 melanoma
[44] = tested on: SK-MEL-5 melanoma
[45] = tested on: SK-OV-3 ovarian
[46] = tested on: SN12C renal
[47] = tested on: SNB-19 CNS
[48] = tested on: SNB-75 CNS
[49] = tested on: SR leukemia
[50] = tested on: SW-620 colon
[51] = tested on: T-47D breast
[52] = tested on: TK-10 renal
[53] = tested on: U251 CNS
[54] = tested on: UACC-257 melanoma
[55] = tested on: UACC-62 melanoma
[56] = tested on: UO-31 renal
[57] = tested on: EKVX NSCLC
[58] = tested on: SF-295 CNS

C#Cc1ccc(-n2c(/C=C/c3ccc(O)cc3)nc3ncccc3c2=O)cc1
GI50 [1]: 4.88 µM
TGI [1]: 50.4 µM
GI50 [2]: 2.48 µM
TGI [2]: 6.88 µM
GI50 [3]: 4.74 µM
TGI [3]: > 100 µM
GI50 [4]: 6.31 µM
TGI [4]: > 100 µM
GI50 [5]: 7.51 µM
TGI [5]: 87.4 µM
GI50 [6]: 4.15 µM
TGI [6]: > 100 µM
GI50 [7]: 3.3 µM
TGI [7]: > 100 µM
GI50 [8]: > 100 µM
TGI [8]: > 100 µM
GI50 [9]: 4.1 µM
TGI [9]: 76.5 µM
GI50 [10]: 25.7 µM
TGI [10]: > 100 µM
GI50 [11]: 5.07 µM
TGI [11]: > 100 µM
GI50 [12]: 4.65 µM
TGI [12]: > 100 µM
GI50 [13]: 3.2 µM
TGI [13]: 30 µM
GI50 [14]: 5.66 µM
TGI [14]: 55.7 µM
GI50 [15]: 1.8 µM
TGI [15]: 17.1 µM
GI50 [16]: 3.24 µM
TGI [16]: 30 µM
GI50 [17]: 52.8 µM
TGI [17]: > 100 µM
GI50 [18]: 4.69 µM
TGI [18]: 35.4 µM
GI50 [19]: 4.33 µM
TGI [19]: > 100 µM
GI50 [20]: 3.81 µM
TGI [20]: 60.3 µM
GI50 [21]: 5.35 µM
TGI [21]: > 100 µM
GI50 [22]: 2.7 µM
TGI [22]: 8.08 µM
GI50 [23]: 5.13 µM
TGI [23]: > 100 µM
GI50 [24]: 3.04 µM
TGI [24]: > 100 µM
GI50 [25]: 11.4 µM
TGI [25]: > 100 µM
GI50 [26]: 1.6 µM
TGI [26]: 4.04 µM
GI50 [27]: 7.35 µM
TGI [27]: > 100 µM
GI50 [28]: 2.58 µM
TGI [28]: 13.1 µM
GI50 [29]: 5.52 µM
TGI [29]: > 100 µM
GI50 [30]: 3.33 µM
TGI [30]: 14.1 µM
GI50 [31]: 2 µM
TGI [31]: 6.04 µM
GI50 [32]: 5.27 µM
TGI [32]: > 100 µM
GI50 [33]: 2.41 µM
TGI [33]: 5.69 µM
GI50 [34]: 22.8 µM
TGI [34]: > 100 µM
GI50 [35]: 32.3 µM
TGI [35]: > 100 µM
GI50 [36]: 4.39 µM
TGI [36]: 47 µM
GI50 [37]: 3.87 µM
TGI [37]: 47.9 µM
GI50 [38]: 3.41 µM
TGI [38]: > 100 µM
GI50 [39]: 1.48 µM
TGI [39]: 4.41 µM
GI50 [40]: 5.24 µM
TGI [40]: 68 µM
GI50 [41]: 2.12 µM
TGI [41]: 6.1 µM
GI50 [42]: 3.95 µM
TGI [42]: 40.7 µM
GI50 [43]: 5.97 µM
TGI [43]: > 100 µM
GI50 [44]: 2.24 µM
TGI [44]: 7.45 µM
GI50 [45]: 3.38 µM
TGI [45]: 29.1 µM
GI50 [46]: 5.16 µM
TGI [46]: > 100 µM
GI50 [47]: 6.26 µM
TGI [47]: > 100 µM
GI50 [48]: 0.948 µM
TGI [48]: 32.5 µM
GI50 [49]: 3.54 µM
TGI [49]: > 100 µM
GI50 [50]: 3.55 µM
TGI [50]: > 100 µM
GI50 [51]: 4.63 µM
TGI [51]: > 100 µM
GI50 [52]: 8.78 µM
TGI [52]: 68.7 µM
GI50 [53]: 4.02 µM
TGI [53]: > 100 µM
GI50 [54]: 6.3 µM
TGI [54]: > 100 µM
GI50 [55]: 4.01 µM
TGI [55]: > 100 µM
GI50 [56]: 3.79 µM
TGI [56]: 33.7 µM

Fc1ccc(NC(c2ccc(F)cc2)C2CCN(CCCCc3ccccc3)CC2)cc1 (stereo unspecified)
GI50 [1]: 1.47 µM
TGI [1]: 2.84 µM
GI50 [2]: 0.671 µM
TGI [2]: 2.21 µM
GI50 [3]: 1.91 µM
TGI [3]: 3.73 µM
GI50 [4]: 1.68 µM
TGI [4]: 3.05 µM
GI50 [5]: 1.55 µM
TGI [5]: 2.97 µM
GI50 [7]: 3.62 µM
TGI [7]: 9.12 µM
GI50 [8]: 1.6 µM
TGI [8]: 3.2 µM
GI50 [9]: 1.77 µM
TGI [9]: 3.86 µM
GI50 [57]: 1.7 µM
TGI [57]: 4.42 µM
GI50 [10]: 1.76 µM
TGI [10]: 3.31 µM
GI50 [11]: 1.41 µM
TGI [11]: 2.75 µM
GI50 [12]: 1.45 µM
TGI [12]: 2.89 µM
GI50 [13]: 1.24 µM
TGI [13]: 3.54 µM
GI50 [14]: 1.45 µM
TGI [14]: 3 µM
GI50 [15]: 1.31 µM
TGI [15]: 3.41 µM
GI50 [16]: 1.7 µM
TGI [16]: 3.9 µM
GI50 [17]: 1.4 µM
TGI [17]: 3.03 µM
GI50 [18]: 2.18 µM
TGI [18]: 5.17 µM
GI50 [19]: 2.07 µM
TGI [19]: 4.96 µM
GI50 [20]: 1.85 µM
TGI [20]: 3.67 µM
GI50 [21]: 1.55 µM
TGI [21]: 2.89 µM
GI50 [22]: 1.59 µM
TGI [22]: 3.2 µM
GI50 [23]: 1.4 µM
TGI [23]: 2.88 µM
GI50 [24]: 1.64 µM
TGI [24]: 3.24 µM
GI50 [25]: 1.58 µM
TGI [25]: 3.13 µM
GI50 [26]: 1.6 µM
TGI [26]: 2.95 µM
GI50 [27]: 1.74 µM
TGI [27]: 4.37 µM
GI50 [28]: 1.78 µM
TGI [28]: 3.6 µM
GI50 [29]: 1.78 µM
TGI [29]: 3.86 µM
GI50 [30]: 1.71 µM
TGI [30]: 3.09 µM
GI50 [31]: 1.65 µM
TGI [31]: 3.47 µM
GI50 [32]: 1.7 µM
TGI [32]: 3.45 µM
GI50 [33]: 1.57 µM
TGI [33]: 2.91 µM
GI50 [34]: 1.41 µM
TGI [34]: 3.22 µM
GI50 [35]: 1.7 µM
TGI [35]: 4.04 µM
GI50 [36]: 2.05 µM
TGI [36]: 4.19 µM
GI50 [37]: 1.82 µM
TGI [37]: 3.76 µM
GI50 [38]: 2.17 µM
TGI [38]: 4.78 µM
GI50 [39]: 1.72 µM
TGI [39]: 3.17 µM
GI50 [40]: 1.68 µM
TGI [40]: 3.83 µM
GI50 [58]: 1.49 µM
TGI [58]: 2.86 µM
GI50 [41]: 1.71 µM
TGI [41]: 3.1 µM
GI50 [42]: 1.81 µM
TGI [42]: 3.54 µM
GI50 [43]: 1.76 µM
TGI [43]: 3.28 µM
GI50 [44]: 1.63 µM
TGI [44]: 3.1 µM
GI50 [45]: 1.86 µM
TGI [45]: 3.94 µM
GI50 [46]: 1.77 µM
TGI [46]: 3.37 µM
GI50 [47]: 1.99 µM
TGI [47]: 4.9 µM
GI50 [48]: 1.11 µM
TGI [48]: 2.43 µM
GI50 [49]: 1.57 µM
TGI [49]: 3.89 µM
GI50 [50]: 1.26 µM
TGI [50]: 2.57 µM
GI50 [51]: 1.65 µM
TGI [51]: 3.62 µM
GI50 [52]: 2.07 µM
TGI [52]: 5.34 µM
GI50 [53]: 1.67 µM
TGI [53]: 3.06 µM
GI50 [54]: 1.97 µM
TGI [54]: 3.79 µM
GI50 [55]: 1.83 µM
TGI [55]: 3.46 µM
GI50 [56]: 1.08 µM
TGI [56]: 2.43 µM
